From the NIST ThermoML archive (doi:10.1016/j.jct.2017.12.015)
Numbers after ± are expanded uncertainties.

Key:
[1] = refractive index (Na D-line) (dimensionless); details: 298 K; 101.33 kPa; Liquid; Standard Abbe refractometry
[2] = Liquid, Ebulliometric method (Recirculating still)

With `CC(=O)O` [acetic acid] the refractive index [1] was 1.37203 ± 0.001.
Compound `O` [water] has a refractive index [1] of 1.3325 ± 0.001.
In the case of `CC1CCCO1` (configuration not stated) [2-methyltetrahydrofuran], the refractive index [1] is reported as 1.40299 ± 0.001, the “vapor or sublimation pressure” value ([2]; 323.22 K) is reported as 36.4 ± 0.3 kPa and the “vapor or sublimation pressure” value ([2]; 327.67 K) is reported as 43 ± 0.3 kPa. The “vapor or sublimation pressure” value ([2]; 337.97 K) was 62.1 ± 0.3 kPa, the “vapor or sublimation pressure” value ([2]; 341.54 K) was 70.1 ± 0.3 kPa and the “vapor or sublimation pressure” value ([2]; 347.21 K) was 84.4 ± 0.3 kPa. For the same compound, the “vapor or sublimation pressure” value ([2]; 350.53 K) was 93.8 ± 0.4 kPa and the “vapor or sublimation pressure” value ([2]; 352.84 K) was 100.8 ± 0.4 kPa.
With `O=Cc1ccco1` [2-furaldehyde] the refractive index [1] was 1.52364 ± 0.001.
With `COC1CCCC1` [methoxycyclopentane] the refractive index [1] was 1.41833 ± 0.001, the “vapor or sublimation pressure” value ([2]; 340.92 K) was 29.4 ± 0.2 kPa and the “vapor or sublimation pressure” value ([2]; 345.38 K) was 34.6 ± 0.2 kPa. For the same compound, the “vapor or sublimation pressure” value ([2]; 350.4 K) was 41.4 ± 0.3 kPa, the “vapor or sublimation pressure” value ([2]; 356.3 K) was 50.7 ± 0.3 kPa and the “vapor or sublimation pressure” value ([2]; 363.57 K) was 64.4 ± 0.3 kPa. For the same compound, the “vapor or sublimation pressure” value ([2]; 366.69 K) was 71.1 ± 0.3 kPa, the “vapor or sublimation pressure” value ([2]; 369.78 K) was 78.3 ± 0.3 kPa and the “vapor or sublimation pressure” value ([2]; 374.39 K) was 90 ± 0.3 kPa. For the same compound, the “vapor or sublimation pressure” value ([2]; 377.89 K) was 99.8 ± 0.3 kPa.
`CC(C)=O` [acetone] gave a refractive index [1] of 1.3555 ± 0.001.
